Data: publication PMC9127750, “Structure-based design of CDC42 effector interaction inhibitors for the treatment of cancer” (Cell reports, 2022)

System: WM3248 melanoma cells, 486 antibodies
Assay: Reverse phase protein arrays (RPPA);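 on Cyclin.B1.R.V RPPA level: ratio of treated to vehicle (0 µM) normalized linear protein signal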;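 on Cyclin.E1.R.V RPPA level: ratio of treated to vehicle (0 µM) normalized linear protein signal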;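 on DDB.1.R.V RPPA level: ratio of treated to vehicle (0 µM) normalized linear protein signal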;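 on RPPA ACC1.R.C: ratio of treated to vehicle (0 µM) normalized linear protein signal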;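 on RPPA ASNS.R.V: ratio of treated to vehicle (0 µM) normalized linear protein signal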;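 on RPPA AceCS1.R.V: ratio of treated to vehicle (0 µM) normalized linear protein signal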;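 on RPPA Akt1.R.V: ratio of treated to vehicle (0 µM) normalized linear protein signal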;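 on RPPA Atg5.R.C: ratio of treated to vehicle (0 µM) normalized linear protein signal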;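 on RPPA Bim.R.V: ratio of treated to vehicle (0 µM) normalized linear protein signal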
Assay type: cell-based, Human
Settings: 20 uM, Average
Source text: Pellets were snap frozen in liquid nitrogen and shipped to MD Anderson Cancer Center core RPPA facility for RPPA analysis (Table S5). Three biological replicates for each sample were generated.
Nomenclatures on the RPPA heatmaps: name_of_antibody.species_of_antibody.status_of_antibody. V - antibody validated; C - validation of antibody in progress; Q - antibody nonspecific; E – under evaluation; antibodies raised in M - mouse, G - goat, R - rabbit, or T - rat.

## CN(C)c1cccc(Nc2cc(-c3ccccc3)nc(C3CCNCC3)n2)c1 [ARN22089, N1,N1-dimethyl-N3-(6-phenyl-2-(piperidin-4-yl)pyrimidin-4-yl)benzene-1,3-diamine]
  Caspase.8.cleaved.R.C RPPA level: 1.025
  Caveolin.1.R.V RPPA level: 0.842
  Cdc6.R.V RPPA level: 0.862
  Cdc42.R.C RPPA level: 1.017
  Chk1.M.C RPPA level: 0.898
  Chk1_pS345.R.C RPPA level: 1.107
  Chk2_pT68.R.C RPPA level: 1.241
  Complex.II.Subunit.M.V RPPA level: 0.945
  Coup.TFII.R.C RPPA level: 0.941
  Cox2.R.C RPPA level: 1.267
  Cox.IV.R.V RPPA level: 0.997
  CtIP.R.V RPPA level: 0.950
  Cyclin.B1.R.V RPPA level: 1.134
  Cyclin.D3.M.V RPPA level: 0.840
  Cyclin.E1.R.V RPPA level: 0.959
  Cyclophilin.F.M.V RPPA level: 0.926
  D.a.Tubulin.R.V RPPA level: 1.029
  DAPK1_pS308.M.C RPPA level: 1.208
  DAPK2.R.C RPPA level: 1.003
  DDB.1.R.V RPPA level: 0.948
  DDR1.R.V RPPA level: 1.002
  DDR1_pY513.R.C RPPA level: 1.125
  DJ1.R.V RPPA level: 0.948
  DM.Histone.H3.R.V RPPA level: 2.021
  DM.K9.Histone.H3.M.V RPPA level: 1.447
  DNA.Ligase.IV.R.C RPPA level: 0.981
  DNA_POLG.R.V RPPA level: 1.025
  RPPA A.Raf.R.V: 1.015
  RPPA A.Raf_pS299.R.C: 1.034
  RPPA ACC1.R.C: 0.857
  RPPA ACLY_pS455.R.V: 1.046
  RPPA ACSL1.R.V: 0.954
  RPPA ACVRL1.R.C: 1.002
  RPPA ADAR1.M.V: 1.149
  RPPA ALKBH5.R.V: 1.061
  RPPA AMPK.a2_pS345.R.V: 1.050
  RPPA AMPKa.R.C: 1.055
  RPPA AMPKa_pT172.R.C: 2.324
  RPPA AR.R.V: 1.058
  RPPA ARID1A.R.C: 1.550
  RPPA ASNS.R.V: 0.982
  RPPA ATM.R.V: 0.922
  RPPA ATM_pS1981.R.V: 1.048
  RPPA ATP5A.M.C: 1.010
  RPPA ATR.R.V: 0.999
  RPPA ATRX.R.C: 1.085
  RPPA ATR_pS428.R.C: 1.058
  RPPA AceCS1.R.V: 0.988
  RPPA Akt1.R.V: 0.884
  RPPA Akt1_pS473.R.V: 1.015
  RPPA Akt2.R.V: 0.884
  RPPA Akt2_pS474.R.C: 1.034
  RPPA Akt.R.V: 0.924
  RPPA Akt_pS473.R.V: 0.837
  RPPA Ambra1_pS52.R.C: 1.060
  RPPA Annexin.I.M.V: 0.985
  RPPA Annexin.VII.M.V: 0.970
  RPPA Atg3.R.V: 0.967
  RPPA Atg4B.R.C: 0.915
  RPPA Atg5.R.C: 0.922
  RPPA Atg7.R.V: 0.846
  RPPA Aurora.A.R.C: 1.195
  RPPA Aurora.ABC_pT288_pT232_pT198.R.C: 0.954
  RPPA Aurora.B.R.V: 1.362
  RPPA Axl.R.V: 0.993
  RPPA B7.H3.R.C: 0.942
  RPPA B7.H4.R.C: 0.993
  RPPA B.Raf.R.C: 0.957
  RPPA BAP1.M.V: 0.964
  RPPA BCL2A1.R.V: 1.025
  RPPA BMK1.Erk5_pT218_Y220.R.V: 0.950
  RPPA BRCA1.M.C: 1.124
  RPPA BRD4.R.V: 1.303
  RPPA Bak.R.C: 1.033
  RPPA Bax.R.V: 1.025
  RPPA Bcl2.R.C: 1.107
  RPPA Bcl.xL.R.V: 1.064
  RPPA Beclin.R.C: 0.977
  RPPA BiP.GRP78.M.C: 0.989
  RPPA Bid.R.C: 0.971
  RPPA Bim.R.V: 1.023
  RPPA DNMT1.R.V: 0.908
  RPPA DRP1.R.V: 0.953
  RPPA DUSP4.R.V: 0.738
  RPPA DUSP6.R.C: 1.449
  RPPA DYRK1B.R.C: 1.005
  RPPA Dvl3.R.V: 1.056
  RPPA E2F1.R.V: 1.239
  RPPA E.Cadherin.R.V: 0.959
  RPPA EGFR.R.V: 1.079
  RPPA EGFR_pY1068.R.C: 0.971
  RPPA EMA.M.C: 0.929
  RPPA ENY2.M.C: 0.931
  RPPA ER.a.R.V: 0.988
  RPPA ER.a_pS118.R.V: 1.453
  RPPA ERCC1.R.C: 1.065
  RPPA ERCC5.R.C: 1.014
  RPPA ERRalpha.R.V: 1.009
  RPPA Elk1_pS383.R.C: 1.100
  RPPA Enolase.1.R.V: 0.939
  RPPA Enolase.2.R.V: 0.991
  RPPA EphA2.R.V: 0.816
  RPPA EphA2_pS897.R.C: 0.726
  RPPA EphA2_pY588.R.C: 1.016
  RPPA Erk5.R.V: 0.946
  RPPA Ets.1.R.V: 1.154
  RPPA FABP5.R.C: 1.025
  RPPA FAK.R.C: 1.003
  RPPA FAK_pY397.R.V: 1.007
  RPPA FANCD2.R.V: 0.924
  RPPA FASN.R.V: 0.845
  RPPA FGF.basic.R.C: 0.992
  RPPA FOXM1.R.V: 1.057
  RPPA FOXO3.R.V: 1.019
  RPPA FRS2.alpha_pY196.R.V: 1.009
  RPPA FTO.R.V: 0.977
  RPPA Fibronectin.R.V: 0.989
  RPPA FoxO3a_pS318_S321.R.C: 1.005
  RPPA G6PD.R.V: 0.983
  RPPA GATA6.R.V: 0.981
  RPPA GCLC.R.C: 0.993
  RPPA GCLM.R.V: 0.999
  RPPA GCN5L2.R.V: 1.002
  RPPA GRB2.R.V: 0.956
  RPPA GSK.3B.R.C: 0.901
  RPPA GSK.3a.b.M.V: 0.957
  RPPA GSK.3a.b_pS21_S9.R.V: 1.052
  RPPA Gli1.R.C: 0.953
  RPPA Gli3.R.C: 1.116
  RPPA Glucocorticoid.Receptor.R.V: 1.130
  RPPA Glutaminase.R.C: 1.024
  RPPA Grp75.R.C: 1.172
  RPPA Gys.R.V: 1.003
  RPPA Gys_pS641.R.V: 0.884
  RPPA H2AX_pS139.R.C: 1.441
  RPPA H2AX_pS140.M.C: 1.148
  RPPA HER2.M.V: 0.983
  RPPA HER2_pY1248.R.V: 1.026
  RPPA HER3.R.V: 0.916
  RPPA HER3_pY1289.R.C: 1.009
  RPPA HES1.R.V: 1.049
  RPPA Heregulin.R.V: 1.013
  RPPA X4E.BP1.R.V: 1.246
  RPPA X4E.BP1_pS65.R.V: 0.859
  RPPA X4E.BP1_pT37_T46.R.V: 0.868
  RPPA X14.3.3.zeta.R.V: 0.922
  RPPA X14.3.3βR.V: 1.078
  RPPA X14.3.3εM.C: 0.929
  RPPA X53BP1.R.V: 1.047
  RPPA b.Actin.R.C: 1.098
  RPPA b.Catenin.R.V: 0.957
  RPPA c.Abl.R.V: 1.129
  RPPA c.Abl_pY412.R.C: 1.034
  RPPA c.IAP2.R.C: 1.063
  RPPA eEF2K.R.V: 1.262
  RPPA eIF4E.R.V: 1.164
  RPPA eIF4E_pS209.R.V: 1.101
  RPPA eIF4G.R.C: 1.116
  RPPA level HLA.DQA1.R.V: 1.019
  RPPA level HLA.DR.DP.DQ.DX.R.C: 1.117
  RPPA level HNRNPK.R.V: 1.028
  RPPA level HSP27.M.C: 0.864
  RPPA level HSP60.R.V: 1.000
